# Columns and labels:
# Assay type in all cases: in vivo
# [1] = tested on: rats with adjuvant arthritis; assay: Freund adjuvant arthritis test (anti-inflammatory activity); conditions: arthritic score versus first score, suspended in gum acacia
# Method: The anti-inflammatory activity was determined by the Freund adjuvant arthritis test (Pearson, C.M. Proc. Soc. Exp. Biol. Med 91, 95 1956) and analgesic activity was determined by applying an increasing pressure to the inflamed paw (Randall, L.O. Selitto, J.J., Arch. Int. Pharmacodyn, 111, 409 1957) and recording pain threshold.
# The anti-inflammatory activity of the compounds was determined in rats with adjuvant arthritis (Pearson, C.M. Prod. Soc. Exp. Biol. Med., 91, 95, 1956) induced by intradermal,injection into the tail of 0.1 ml of a fine suspension of Mycobacterium butyricum in liquid paraffin (6 mg.ml^-1).
# After 14 days, animals were chosen on the basis of their arthritic score and test compounds, suspended in gum acacia, were then orally administered once a day for 14 days. At the end of this period, animals were scored again and percentage inhibition versus first score was calculated. Comparisons with controls were performed by the Dunnett test. The following results were obtained for the compounds of the Examples: […]
# Toxicity (oral LD50) = conditions: in vivo, po; rat, orally
# Method: (§1) The compounds are in general non-toxic at therapeutically active doses. For example, the compound of Example 1 has an LD50 value in the rat in excess of 3000 mg.kg ^-1 orally.
# rat = assay: Toxicity (oral LD50); conditions: result in words
# Method: as §1
# [2] = oral dose 50.0 mg.kg^-1 once a day for 14 days
compound,measurement,setting,value
"COc1ccc2c(c1)c(CC(=O)Nc1nnnn1-c1ccccc1)c(C)n2C(=O)c1ccc(Cl)cc1 [Example 1, 1-Phenyl-5-[1-(4-chlorobenzoyl)-5-methoxy-2-methylindol-3-ylacetamido]tetrazole]",% Inhibition,[1]; oral dose 6.25 mg.kg^-1 once a day for 14 days,59%
same,LD50,Toxicity (oral LD50),> 3000 mg/kg
same,therapeutic index,rat,particularly advantageous
"COc1ccc2c(c1)c(CC(=O)Nc1nnnn1-c1ccc(Cl)c(Cl)c1)c(C)n2C(=O)c1ccc(Cl)cc1 [Example 2, 1-(3,4-Dichlorophenyl)-5-[1-(4-chlorobenzoyl)-5-methoxy-2-methylindol-3-ylacetamido]tetrazole]",% Inhibition,[1]; [2],40.3%
"COc1ccc2c(c1)c(CC(=O)Nc1nnnn1-c1ccc([N+](=O)[O-])cc1)c(C)n2C(=O)c1ccc(Cl)cc1 [Example 3, 1-(4-Nitrophenyl)-5-[1-(4-chlorobenzoyl)-5-methoxy-2-methylindol-3-ylacetamido] tetrazole]",% Inhibition,[1]; oral dose 10.0 mg.kg^-1 once a day for 14 days,47.7%
COc1ccc2c(c1)c(CC(=O)Nc1nnnn1-c1ccc(N)cc1)c(C)n2C(=O)c1ccc(Cl)cc1 [Example 4],% Inhibition,[1]; [2],44.8%
